Read-outs that look alike come from different tables or passages of the source.
Columns and labels:
[1] = test system: Parkinson's disease patient
[2] = test system: Parkinson's disease model rat; conditions: cited from earlier work
[3] = test system: patient with multiple system atrophy; assay: Hydrogen water ingestion / hydrogen gas inhalation by a patient with multiple system atrophy (Case 3); type: in vivo, human; conditions: about 6.0 to 7.0% hydrogen, about 1.5 to about 2 hours every day, early stage after the start of the inhalation
Procedure: The hydrogen concentration in MHG-2000α is about 6.0 to 7.0% (hydrogen generation rate: about 140 ml/min).

[4] = test system: Parkinson's disease patient; remark: listed apart in the source
Procedure: A Parkinson's disease patient (medical history: about 8 years) inhaled a mixed gas of hydrogen and air using a gaseous hydrogen inhalation apparatus (MHG-2000α (registered trademark); MiZ Company Limited) for about 90 minutes per day over about 2 months. Here, the mixed gas was inhaled every 2 or 3 days over first about 3 weeks and every day over subsequent about 5 weeks. The hydrogen concentration in MHG-2000α is about 6.0 to 7.0% by volume (hydrogen generation rate: about 140 ml/min).
A Parkinson's disease patient one (medical history: about 6 years) inhaled a mixed gas of hydrogen and air using a gaseous hydrogen inhalation apparatus (MHG-2000α (registered trademark); MiZ Company Limited) for about 90 minutes or about 120 minutes per day. Here, the mixed gas was inhaled every day over about 4.5 months. The hydrogen concentration in MHG-2000α is about 6.0 to 7.0% by volume (hydrogen generation rate: about 140 ml/min).

[5] = compared with H2; cited from earlier work
[6] = Case 1, first inhalation for 90 minutes, about 6.0 to 7.0% by volume hydrogen
[7] = Case 2, about 4 months after the start of inhalation
[8] = Case 2, immediately after inhalation for about 90 or about 120 minutes per day, substantially every day over about 1 month

[HH] [hydrogen gas, molecular hydrogen]
action tremors, VAS scale values of 0 to 5.0 ([1]; Case 4, about 4% by volume hydrogen, about 20 minutes every day over 3 months, FIG. 1A): evidently improved
slowness of movement, VAS scale values of 0 to 5.0 ([1]; Case 4, about 4% by volume hydrogen, about 20 minutes every day over 3 months, FIG. 1B): evidently improved
tiny step gait, VAS scale values of 0 to 5.0 ([1]; Case 4, about 4% by volume hydrogen, about 20 minutes every day over 3 months, FIG. 1C): evidently improved
slowness of movement, VAS scale values of 0 to 5.0 ([1]; Case 5, about 6.0 to 7.0% by volume hydrogen, about 1 to 3 hours every day over 3 months, FIG. 2A): evidently improved
forward-bending posture, VAS scale values of 0 to 5.0 ([1]; Case 5, about 6.0 to 7.0% by volume hydrogen, about 1 to 3 hours every day over 3 months, FIG. 2B): evidently improved
rigidity, VAS scale values of 0 to 5.0 ([1]; Case 5, about 6.0 to 7.0% by volume hydrogen, about 1 to 3 hours every day over 3 months, FIG. 2C): evidently improved
bowel movement (constipation), VAS scale values of 0 to 5.0 ([1]; Case 5, about 6.0 to 7.0% by volume hydrogen, about 1 to 3 hours every day over 3 months, FIG. 2E): evidently improved
sleep (insomnia), VAS scale values of 0 to 5.0 ([1]; Case 5, about 6.0 to 7.0% by volume hydrogen, about 1 to 3 hours every day over 3 months, FIG. 2F): evidently improved
tiny step gait, VAS scale values of 0 to 5.0 ([1]; Case 5, over three months after the start of inhalation, FIG. 2D legend): improvements
advancement of symptoms ([2]; hydrogen gas (2%) continuously breathed): the symptoms were advanced
advancement of symptoms ([2]; hydrogen gas (2%) intermittently breathed): slightly lessened
gait [3]: became able to walk steadily and without support
posture forward-bending in a dogleg shape ([4]; Case 1, 90 minutes after the start of first inhalation): improved to a middle between the upright state and the dogleg shape state
complexion, voice, movement, gait and the like ([4]; Case 1, about 6.0 to 7.0% by volume hydrogen, about 90 minutes per day over about 2 months): improved to be almost comparable to a healthy person
time after start of inhalation at which shaking of hands was stopped [4, 6]: about 30 minutes
time after start of inhalation at which shaking under the jaw was stopped [4, 6]: about 40 minutes
time after start of inhalation at which shaking of the hands was stopped ([4]; Case 2 (person one), first inhalation, about 6.0 to 7.0% by volume hydrogen): about 45 minutes
bending of the spine [4, 7]: reduced as compared to the symptom in the early stage
shaking of the hands and the mouth [4, 7]: too small to be recognized unless a careful observation is made
time taken for fastening buttons of clothing and for change of clothes [4, 7]: markedly shortened
bending of the waist compared to before the inhalation ([4]; Case 2, about 90 minutes after the start of first inhalation): improved
time after start of inhalation at which shaking of the mouth was stopped ([4]; Case 2, first inhalation, about 6.0 to 7.0% by volume hydrogen): about 55 minutes
forward-bending posture [4, 8]: improved to a reasonably upright state
shaking of the hands and legs [4, 8]: did not shake, or shook slightly
shaking of the mouth [4, 8]: shook slightly

[2H][2H] [D2, deuterium]
superoxide scavenging effect [5]: higher than that of H2

Reference: US20200000843A1, “COMPOSITION FOR IMPROVEMENT OR PREVENTION OF PARKINSONIAN SYNDROME” (MiZ Company Limited, priority 2018, published 2020)
